Assay results from ChEMBL document CHEMBL1201862, “PubChem BioAssay data set” (2004).
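Test compounds were applied to cells in 96-well plates for 48 hours at 5 doses. Abbreviation: GI50, concentration required for 50% inhibition of growth.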 Calls of active or inactive are those of the source. Rule as the data show it: active = GI50 up to about 1.1 µM and inactive = higher.

Columns and labels:
Assay in all cases: growth of human tumour cells (NCI), 48 h
SNB-19 = tested on: SNB-19
UACC-62 = tested on: UACC-62
CAKI-1 = tested on: CAKI-1
HT-29 = tested on: HT-29
OVCAR-5 = tested on: OVCAR-5
U-251 = tested on: U-251
LOX IMVI = tested on: LOX IMVI
RXF 393 = tested on: RXF 393
NCI-H226 = tested on: NCI-H226
CCRF-CEM = tested on: CCRF-CEM
EKVX = tested on: EKVX
HCC 2998 = tested on: HCC 2998
HCT-15 = tested on: HCT-15
SK-MEL-2 = tested on: SK-MEL-2
MOLT-4 = tested on: MOLT-4
SR = tested on: SR

| Compound | GI50 (SNB-19) | GI50 (UACC-62) | GI50 (CAKI-1) | GI50 (HT-29) | GI50 (OVCAR-5) | GI50 (U-251) | GI50 (LOX IMVI) | GI50 (RXF 393) | GI50 (NCI-H226) | GI50 (CCRF-CEM) | GI50 (EKVX) | GI50 (HCC 2998) | GI50 (HCT-15) [µM] | GI50 (SK-MEL-2) | GI50 (MOLT-4) | GI50 (SR) |
| --- | --- | --- | --- | --- | --- | --- | --- | --- | --- | --- | --- | --- | --- | --- | --- | --- |
| CCOc1ccc(C(CN2CCOCC2)C(C)=O)cc1OC (stereo unspecified) | 17.1 µM (inactive) | 17.3 µM (inactive) | 10.8 µM (inactive) | 19.6 µM (inactive) | 19 µM (inactive) | 18 µM (inactive) | 17 µM (inactive) | 21 µM (inactive) | 17.7 µM (inactive) | 9.4 µM (inactive) | 22.6 µM (inactive) | 18.4 µM (inactive) | 10 | 14.3 µM (inactive) | 21.9 µM (inactive) | – |
| CC(=O)Nc1ccc(C(=O)N2N=C(C)/C(=C\c3c(O)ccc4ccccc34)C2=O)cc1 | > 100 µM (inactive) | – | > 100 µM (inactive) | > 100 µM (inactive) | > 100 µM (inactive) | – | 59.8 µM (inactive) | – | 39.5 µM (inactive) | 26.8 µM (inactive) | > 100 µM (inactive) | > 100 µM (inactive) | 18.4 | 29.8 µM (inactive) | 31.7 µM (inactive) | 53.3 µM (inactive) |
| O=S(=O)(N/N=C/c1ccc(/C=N/NS(=O)(=O)c2ccccc2)cc1)c1ccccc1 | – | 24.9 µM (inactive) | – | 59.6 µM (inactive) | 4.36 µM (inactive) | 41 µM (inactive) | 16 µM (inactive) | 27.7 µM (inactive) | > 100 µM (inactive) | 30.3 µM (inactive) | 72.9 µM (inactive) | > 100 µM (inactive) | 44.1 | 43.5 µM (inactive) | 21.5 µM (inactive) | 29 µM (inactive) |
| Cc1cccc(NC(=O)c2cc3cc(/N=N/c4ccccc4Cl)ccc3oc2=O)c1 | 49 µM (inactive) | 16.3 µM (inactive) | 41.1 µM (inactive) | 38.2 µM (inactive) | 23.4 µM (inactive) | 26.5 µM (inactive) | 10.4 µM (inactive) | 33.1 µM (inactive) | 13 µM (inactive) | 14 µM (inactive) | 53.1 µM (inactive) | 26.1 µM (inactive) | 27.4 | – | 22.8 µM (inactive) | – |
| O=S1(=O)OCCOS(=O)(=O)C1Cc1ccccc1 | 70.3 µM (inactive) | 40.8 µM (inactive) | 55.8 µM (inactive) | 63.5 µM (inactive) | > 100 µM (inactive) | 24.4 µM (inactive) | 35.7 µM (inactive) | 41.1 µM (inactive) | 46.1 µM (inactive) | – | 33.7 µM (inactive) | 20 µM (inactive) | – | – | 25.3 µM (inactive) | 28.8 µM (inactive) |
| Cc1cc(C)c(C2=NO[C@@H]3C(=O)N(c4ccc(Cc5ccc(N6C(=O)[C@H]7C(c8c(C)cc(C)cc8C)=NO[C@H]7C6=O)cc5)cc4)C(=O)[C@H]23)c(C)c1 | – | > 100 µM (inactive) | > 100 µM (inactive) | > 100 µM (inactive) | > 100 µM (inactive) | – | > 100 µM (inactive) | > 100 µM (inactive) | > 100 µM (inactive) | > 100 µM (inactive) | > 100 µM (inactive) | > 100 µM (inactive) | > 100 | > 100 µM (inactive) | > 100 µM (inactive) | – |
| Cc1cc(C)n(-c2c(O)ccc(O)c2-n2nc(C)cc2C)n1 | > 100 µM (inactive) | > 100 µM (inactive) | > 100 µM (inactive) | > 100 µM (inactive) | > 100 µM (inactive) | > 100 µM (inactive) | > 100 µM (inactive) | > 100 µM (inactive) | – | > 100 µM (inactive) | > 100 µM (inactive) | > 100 µM (inactive) | > 100 | > 100 µM (inactive) | > 100 µM (inactive) | – |
| CN1CCCc2nc3ccccc3n2C1 | > 100 µM (inactive) | > 100 µM (inactive) | > 100 µM (inactive) | > 100 µM (inactive) | > 100 µM (inactive) | > 100 µM (inactive) | > 100 µM (inactive) | > 100 µM (inactive) | > 100 µM (inactive) | 88.3 µM (inactive) | > 100 µM (inactive) | – | > 100 | > 100 µM (inactive) | > 100 µM (inactive) | – |
| Cc1cccc(C)c1NC(=O)C(=O)C(C#N)c1ccccc1 (stereo unspecified) | > 100 µM (inactive) | > 100 µM (inactive) | > 100 µM (inactive) | > 100 µM (inactive) | > 100 µM (inactive) | > 100 µM (inactive) | > 100 µM (inactive) | > 100 µM (inactive) | > 100 µM (inactive) | > 100 µM (inactive) | > 100 µM (inactive) | > 100 µM (inactive) | > 100 | > 100 µM (inactive) | > 100 µM (inactive) | – |
| Cn1cc(NC(=O)c2cc(NC(=O)CCCCCCCCCCC(=O)Nc3cc(C(=O)Nc4cc(C(=O)NCCC(=N)N)n(C)c4)n(C)c3)cn2C)cc1C(=O)NCCC(=N)N | 34.4 µM (inactive) | 7.5 µM (inactive) | 46.8 µM (inactive) | 29.1 µM (inactive) | 67.3 µM (inactive) | 33 µM (inactive) | 40.4 µM (inactive) | 17.8 µM (inactive) | > 100 µM (inactive) | 50 µM (inactive) | 31 µM (inactive) | 19 µM (inactive) | 36.6 | 35.8 µM (inactive) | 45.9 µM (inactive) | – |
| CCOc1ccccc1N1C(=O)C(=O)C(c2nc3ccccc3s2)C(=O)C1=O | 56.5 µM (inactive) | > 100 µM (inactive) | 38.5 µM (inactive) | 39.8 µM (inactive) | > 100 µM (inactive) | 49.3 µM (inactive) | 55.5 µM (inactive) | > 100 µM (inactive) | 69.5 µM (inactive) | – | > 100 µM (inactive) | > 100 µM (inactive) | 76.9 | > 100 µM (inactive) | – | – |
| CC1=CC(N2C(=O)C(C)=CC2O)NC1=O (stereo unspecified) | > 100 µM (inactive) | – | > 100 µM (inactive) | > 100 µM (inactive) | > 100 µM (inactive) | > 100 µM (inactive) | > 100 µM (inactive) | > 100 µM (inactive) | > 100 µM (inactive) | – | > 100 µM (inactive) | > 100 µM (inactive) | – | > 100 µM (inactive) | – | > 100 µM (inactive) |
| Cc1cc(N(CCC#N)CCC#N)ccc1/C=C1/CN(N2C(=O)/C(=C/c3ccc(N(CCC#N)CCC#N)cc3C)N=C2c2ccccc2)C(c2ccccc2)=N1 | 41 µM (inactive) | > 100 µM (inactive) | > 100 µM (inactive) | > 100 µM (inactive) | > 100 µM (inactive) | 32 µM (inactive) | > 100 µM (inactive) | 28.4 µM (inactive) | > 100 µM (inactive) | > 100 µM (inactive) | > 100 µM (inactive) | > 100 µM (inactive) | > 100 | – | > 100 µM (inactive) | > 100 µM (inactive) |
| O=c1/c(=C/c2ccccc2O)sc2nc3ccccc3n12 | 80.7 µM (inactive) | 23.1 µM (inactive) | 34.6 µM (inactive) | 43.2 µM (inactive) | > 100 µM (inactive) | – | 35.5 µM (inactive) | 21.9 µM (inactive) | 52.1 µM (inactive) | 16.3 µM (inactive) | 15.3 µM (inactive) | 55.8 µM (inactive) | 21.6 | 32.3 µM (inactive) | 18.1 µM (inactive) | 27.4 µM (inactive) |
| CN1c2ccccc2N(C(=O)c2ccc(Cl)cc2)C(CC(=O)O)c2cccn21 (stereo unspecified) | > 100 µM (inactive) | > 100 µM (inactive) | > 100 µM (inactive) | > 100 µM (inactive) | > 100 µM (inactive) | – | > 100 µM (inactive) | > 100 µM (inactive) | > 100 µM (inactive) | > 100 µM (inactive) | > 100 µM (inactive) | > 100 µM (inactive) | > 100 | > 100 µM (inactive) | > 100 µM (inactive) | – |
| O=c1nc(/C=C/c2ccccc2Cl)cc2n1CCN2CCO | < 0.01 µM (active) | > 100 µM (inactive) | > 100 µM (inactive) | > 100 µM (inactive) | > 100 µM (inactive) | – | > 100 µM (inactive) | 95.1 µM (inactive) | 97.9 µM (inactive) | 50.4 µM (inactive) | > 100 µM (inactive) | – | > 100 | 72.3 µM (inactive) | 75.9 µM (inactive) | 50.1 µM (inactive) |
| COc1nc2c(nc(N)n2C2OCC(O)C(O)C2O)c(=O)n1C (stereo unspecified) | > 100 µM (inactive) | > 100 µM (inactive) | > 100 µM (inactive) | > 100 µM (inactive) | – | > 100 µM (inactive) | > 100 µM (inactive) | > 100 µM (inactive) | > 100 µM (inactive) | > 100 µM (inactive) | > 100 µM (inactive) | > 100 µM (inactive) | – | – | > 100 µM (inactive) | > 100 µM (inactive) |
| Brc1ccc2ns[s+]c2c1 | 29.9 µM (inactive) | 0.446 µM (active) | 2.49 µM (inactive) | 1.3 µM (inactive) | – | 16 µM (inactive) | 0.659 µM (active) | > 100 µM (inactive) | > 26.3 µM (inactive) | 1.26 µM (inactive) | 13 µM (inactive) | 5.25 µM (inactive) | 0.343 | 6.75 µM (inactive) | 4.65 µM (inactive) | 4.36 µM (inactive) |
| Cc1cc(CC(=O)NCCO)n(CCO)c(=O)c1 | > 100 µM (inactive) | > 100 µM (inactive) | > 100 µM (inactive) | > 100 µM (inactive) | > 100 µM (inactive) | > 100 µM (inactive) | > 100 µM (inactive) | > 100 µM (inactive) | – | > 100 µM (inactive) | – | > 100 µM (inactive) | – | – | > 100 µM (inactive) | > 100 µM (inactive) |
| Cn1c(=O)nc2n(-c3ccc(F)c(F)c3)c3ccccc3nc-2c1=O | 15.7 µM (inactive) | 2.4 µM (inactive) | 38.4 µM (inactive) | 4.03 µM (inactive) | 22.3 µM (inactive) | 14.7 µM (inactive) | – | 28.2 µM (inactive) | 30.3 µM (inactive) | 14.8 µM (inactive) | 4.82 µM (inactive) | 4.89 µM (inactive) | 7.33 | 17 µM (inactive) | – | – |
